Source: patent publication US11666559B2, “Spiro-lactam compounds, process and uses thereof” (UNIVERSIDADE DE COIMBRA, priority 2017, dated 2023)
Like-named read-outs stand apart in the source and are kept apart here.

Legend:
HIV-1 = conditions: for IC50 / IC90: TZM-bl cells
Protocol: (§1) In an embodiment, TZM-bl cells (AIDS Research and Reference Reagent Program, National Institutes of Health, USA) were cultured in complete growth medium that consists of Dulbecco's minimal essential medium (DMEM) supplemented with 10% fetal bovine serum (FBS), 100 U/ml of penicillin-streptomycin (Gibco/Invitrogen, USA), 1 mM of sodium pyruvate (Gibco/Invitrogen, USA), 2 mM of L-glutamine (Gibco/Invitrogen, USA) and 1 mM of non-essential amino acids (Gibco/Invitrogen, USA).
(§2) In an embodiment, the primary isolates 93AOHDC249, 93AOHDC250, 01PTHDECJN and 03PTHCC9, used in this study were previously isolated, titrated and characterized for co-receptor usage. HIV reference strain SG3.1 was obtained by transfection of HEK293T cells with pSG3.1 (HIV-1) plasmid using Fugene 6 reagent (Roche, Switzerland) according to manufacturer's instructions.
(§3) In an embodiment, the 50% tissue culture infectious dose (TCID50) of the virus was determined in a single-round viral infectivity assay using a luciferase reporter gene assay in TZM-bl cells and calculated using the statistical method of Reed and Muench^27.
(§4) In an embodiment, the antiviral activity of the compounds was determined in a single-round assay with TZM-bl cells as previously described ^26. Cells were infected with 200 TCID50 of virus in the presence of serial fold dilutions of the BSS compounds in GM, supplemented with DEAE-dextran (19.7 μg/ml). After 48 h of infection, luciferase expression was quantified with the One-Glow luciferase assay substrate reagent (Promega, USA) according to manufacturer's instructions. Briefly, a volume of reagent equal to that of the culture medium in each well was added. For 96-well plates, typically 100 μl of reagent is added to the cells grown in 100 μl of medium. After an incubation of 3 minutes at room temperature to allow complete cell lysis luminescence was measured in Tecan Infinite M200. Background luminescence was measured by using control wells that contained only target cells and GM. Maraviroc (CCR5 antagonist), T1249 (fusion inhibitor) and AMD3100 (CXCR4 antagonist) were used as positive controls of the antiviral activity. At least two independent experiments were performed for each analysis and each assay was set up in triplicate wells.
(§5) In an embodiment, dose-response curves were estimated from the percentage of inhibition of infection (y-axis) against logo of concentration of each compound (x-axis) using the sigmoidal dose-response equation (variable slope) in GraphPad Prism version 5.00 for Windows (GraphPad Software, San Diego Calif. USA, www.graphpad.com). IC50 and IC90 values were determined from this curve. IC50 and IC90 values correspond to the concentration of compound that inhibits viral replication in 50% and 90%, respectively.

HIV-2 = system: HIV-2
Protocol: as §1, §2, §3, §4, §5

[1] = system: Enterococcus faecalis ATCC 29212; assay: Anti-bacterial activity, agar diffusion method; type: cell-based; conditions: at the concentration of 1 mg/ml
Protocol: (§6) In an embodiment, anti-bacterial activity of the compounds now disclosed was determined according to CLSI guidelines. The following bacteria were used: reference strains E. coli ATCC 10536, Staphylococcus aureus ATCC 6538, Bacillus subtilis ATCC 6633 and Enterococcus faecalis ATCC 29212; clinical strains of E. coli and Pseudomonas aeruginosa isolated in our laboratory; and strains of Lactobacillus rhamnosus and Lactobacillus plantarum also isolated in our laboratory. The Minimum Inhibitory Concentration (MIC) was determined by the agar diffusion method, in plates of Mueller-Hinton agar or Rogosa agar (for Lactobacilli). Briefly, 10^8 cfu/ml bacterial suspensions were prepared in sterile water and spread in the culture media. Sterile disks containing different concentrations of P3 were placed on the inoculated surface. Plates were incubated at 37° C. for 24 h or 48 h. Lactobacilli were incubated at microaerophilic conditions. A negative control made of sterile water was used. Disks of amoxicillin and imipenem were used as positive controls.

[2] = system: Escherichia coli (Clinical strain); assay: Anti-bacterial activity, agar diffusion method; type: cell-based; conditions: at the concentration of 1 mg/ml
Protocol: as §6

[3] = system: Escherichia coli ATCC 10536; assay: Anti-bacterial activity, agar diffusion method; type: cell-based; conditions: at the concentration of 1 mg/ml
Protocol: as §6

Lactobacillus plantarum = assay: Anti-bacterial activity, agar diffusion method; type: cell-based; conditions: at the concentration of 1 mg/ml
Protocol: as §6

Lactobacillus rhamnosus = assay: Anti-bacterial activity, agar diffusion method; type: cell-based; conditions: at the concentration of 1 mg/ml
Protocol: as §6

[4] = system: Pseudomonas aeruginosa (Clinical strain); assay: Anti-bacterial activity, agar diffusion method; type: cell-based; conditions: at the concentration of 1 mg/ml
Protocol: as §6

[5] = system: Staphylococcus aureus ATCC 6538; assay: Anti-bacterial activity, agar diffusion method; type: cell-based; conditions: at the concentration of 1 mg/ml
Protocol: as §6

[6] = system: Bacillus subtillis ATCC 6633; assay: Anti-bacterial activity, agar diffusion method; type: cell-based, Bacillus subtilis; conditions: at the concentration of 1 mg/ml
Protocol: as §6

[7] = 93AOHDC249, CCR5 tropic HIV-1 primary isolate
[8] = 93AOHDC250, HIV-1 primary isolate
[9] = SG3.1, CXCR4 tropic HIV-1 adapted isolate
[10] = 03PTHCC19, CCR5 tropic HIV-2 isolate, TZM-bl cells, wa = without antiviral activity
[11] = 03PTHCC19, CCR5 tropic HIV-2 isolate, wa = without antiviral activity
[12] = HIV-2 primary isolate 00PTHCC20, X4, resistant to ABC, ZDV, d4T, ddl, LPV
[13] = HIV-2 primary isolate 00PTHDECT, R5/X4, resistant to DTG
[14] = HIV-2 primary isolate 03PTHCC20, X4, resistant to ABC, ZDV, d4T, ddl, LPV
[15] = HIV-2 primary isolate 03PTHSM9, X4, resistant to SQV, LPV, DRV and TAF
[16] = HIV-2 primary isolate 10PTHSJIG, R5, resistant to RAL, DTG, LPV, SQV, DRV and all NRTIs
[17] = HIV-2 primary isolate 15PTHCEC, X4, resistant to RAL, DTG, LPV, SQV, DRV, ABC, ddl, TDF, TAF, 3TC, d4T and FTC
[18] = HIV-2 primary isolate 15PTHSJIG, R5, resistant to RAL, DTG, 3TC and FTC
[19] = Table 3, HIV-2 isolate 03PTHCC19, R5, sensitive (control isolate), TZM-bl cells
[20] = 01PTHDECJN, CCR5 tropic HIV-1 primary isolate

Compound: CC1(C)S[C@H]2N(C(=O)[C@]23CC=C(C(=O)OCc2ccccc2)[C@@H]3C(=O)c2ccccc2)[C@H]1C(=O)OC(c1ccccc1)c1ccccc1 [BSS-730A]
- anti-HIV activity against HIV-1 (in words) (HIV-1): potent activity
- MPI (maximum percentage of inhibition) (HIV-1; [7]): 99%
- TI (in vitro therapeutic index, CC50/IC50) (HIV-1; [7]): 2946.32
- IC50 (HIV-1; [7]): 26 nM
- IC90 (HIV-1; [7]): 118 nM
- MPI (maximum percentage of inhibition) (HIV-1; [8]): 94%
- TI (in vitro therapeutic index, CC50/IC50) (HIV-1; [8]): 20247.69
- IC50 (HIV-1; [8]): 4 nM
- IC90 (HIV-1; [8]): 19.7 nM
- inhibition (HIV-1; HIV-1, concentration of 15.21 μM): about 100%
- MPI (maximum percentage of inhibition) (HIV-1; [9]): 99%
- TI (in vitro therapeutic index, CC50/IC50) (HIV-1; [9]): 5584.30
- IC50 (HIV-1; [9]): 14 nM
- IC90 (HIV-1; [9]): 25.2 nM
- anti-HIV activity against HIV-2 (in words) (HIV-2): potent activity
- TI (in vitro therapeutic index, CC50/IC50) (HIV-2; 03PTHCC19, CCR5 tropic HIV-2 isolate): 14029.58
- IC50 (HIV-2; [10]): 5 nM
- IC90 (HIV-2; [10]): 145 nM
- MPI (maximum percentage of inhibition) (HIV-2; [11]): 99%
- inhibition (HIV-2; HIV-2, concentration of 15.21 μM): about 100%
- IC50 (HIV-2; [12]): 18 nM
- IC90 (HIV-2; [12]): 73 nM
- IC50 (HIV-2; [13]): 23 nM
- IC90 (HIV-2; [13]): 57 nM
- IC50 (HIV-2; [14]): 19 nM
- IC90 (HIV-2; [14]): 95 nM
- IC50 (HIV-2; [15]): 16 nM
- IC90 (HIV-2; [15]): 116 nM
- IC50 (HIV-2; [16]): 12 nM
- IC90 (HIV-2; [16]): 32 nM
- IC50 (HIV-2; [17]): 17 nM
- IC90 (HIV-2; [17]): 51 nM
- IC50 (HIV-2; [18]): 18 nM
- IC90 (HIV-2; [18]): 56 nM
- IC50 (HIV-2; [19]): 8 nM
- IC90 (HIV-2; [19]): 64 nM
- inhibitory activity [1]: no inhibitory activity
- inhibitory activity [2]: no inhibitory activity
- inhibitory activity [3]: no inhibitory activity
- inhibitory activity (Lactobacillus plantarum): no inhibitory activity
- inhibitory activity (Lactobacillus rhamnosus): no inhibitory activity
- inhibitory activity [4]: no inhibitory activity
- inhibitory activity [5]: no inhibitory activity
- inhibitory activity [6]: no inhibitory activity

Compound: COC(=O)C1=C[C@@]2(N=N1)C(=O)N1[C@@H](C(=O)O)C(C)(C)S[C@@H]12 [BSS-593, (2,3′R,5R)-5′-(methoxycarbonyl)-3,3-dimethyl-7-oxo-4-thia-1-azaspiro[bicyclo[3.2.0]heptane-6,3′-pyrazole]-2-carboxylic acid]
- anti-HIV activity against HIV-1 (in words) (HIV-1): only active against HIV-1
- MPI (maximum percentage of inhibition) (HIV-1; [20]): 58%
- TI (in vitro therapeutic index, CC50/IC50) (HIV-1; [20]): 4553.31
- IC50 (HIV-1; [20]): 35 nM
- MPI (maximum percentage of inhibition) (HIV-1; [9]): 84%
- TI (in vitro therapeutic index, CC50/IC50) (HIV-1; [9]): 13144.76
- IC50 (HIV-1; [9]): 12 nM
- anti-HIV activity against HIV-2 (in words) (HIV-2): only active against HIV-1
- IC50 (HIV-2; [10]): wa
- IC90 (HIV-2; [10]): wa
- MPI (maximum percentage of inhibition) (HIV-2; [11]): wa
- inhibitory activity [1]: no inhibitory activity
- inhibitory activity [2]: no inhibitory activity
- inhibitory activity [3]: no inhibitory activity
- inhibitory activity (Lactobacillus plantarum): no inhibitory activity
- inhibitory activity (Lactobacillus rhamnosus): no inhibitory activity
- inhibitory activity [4]: no inhibitory activity
- inhibitory activity [5]: no inhibitory activity
- inhibitory activity [6]: no inhibitory activity
